Test results: publication PMC12136037, “Type II kinase inhibitors that target Parkinson’s disease–associated LRRK2” (Science Advances, 2025)

Legend:
Test in all cases: DSF 100 kinase selectivity screen;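 further: compound tested at 20 µM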
Format in all cases: binding
[1] = biological target: T1, ~100 representative kinases (Homo sapiens, UniProt Q2M2I8); conditions: Protein AAK1; average of three replicates
T1 construct: Recombinant protein kinase domains with a concentration of 2 μM
How it was run: (§1)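 Each kinase domain, at 2 μM, is mixed with 20 μM test compound and SYPRO Orange in Hepes (20 mM, pH 7.5) with 500 mM NaCl. Temperature is then raised at 3°C/min and fluorescence-monitored unfolding yields the melting temperature change, ΔTm in degrees Celsius.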

[2] = biological target: T2, ~100 representative kinases (Homo sapiens, UniProt P45983); conditions: protein MAPK8; average of three replicates
T2 construct: Recombinant protein kinase domains with a concentration of 2 μM
How it was run: as §1

[3] = biological target: T3, ~100 representative kinases (Homo sapiens, UniProt Q8IU85); conditions: Protein CAMK1D; average of three replicates
T3 construct: Recombinant protein kinase domains with a concentration of 2 μM
How it was run: as §1

[4] = biological target: T4, ~100 representative kinases (Homo sapiens, UniProt Q13873); conditions: Protein BMPR2; average of three replicates
T4 construct: Recombinant protein kinase domains with a concentration of 2 μM
T4 sequence (Q13873 27-1038): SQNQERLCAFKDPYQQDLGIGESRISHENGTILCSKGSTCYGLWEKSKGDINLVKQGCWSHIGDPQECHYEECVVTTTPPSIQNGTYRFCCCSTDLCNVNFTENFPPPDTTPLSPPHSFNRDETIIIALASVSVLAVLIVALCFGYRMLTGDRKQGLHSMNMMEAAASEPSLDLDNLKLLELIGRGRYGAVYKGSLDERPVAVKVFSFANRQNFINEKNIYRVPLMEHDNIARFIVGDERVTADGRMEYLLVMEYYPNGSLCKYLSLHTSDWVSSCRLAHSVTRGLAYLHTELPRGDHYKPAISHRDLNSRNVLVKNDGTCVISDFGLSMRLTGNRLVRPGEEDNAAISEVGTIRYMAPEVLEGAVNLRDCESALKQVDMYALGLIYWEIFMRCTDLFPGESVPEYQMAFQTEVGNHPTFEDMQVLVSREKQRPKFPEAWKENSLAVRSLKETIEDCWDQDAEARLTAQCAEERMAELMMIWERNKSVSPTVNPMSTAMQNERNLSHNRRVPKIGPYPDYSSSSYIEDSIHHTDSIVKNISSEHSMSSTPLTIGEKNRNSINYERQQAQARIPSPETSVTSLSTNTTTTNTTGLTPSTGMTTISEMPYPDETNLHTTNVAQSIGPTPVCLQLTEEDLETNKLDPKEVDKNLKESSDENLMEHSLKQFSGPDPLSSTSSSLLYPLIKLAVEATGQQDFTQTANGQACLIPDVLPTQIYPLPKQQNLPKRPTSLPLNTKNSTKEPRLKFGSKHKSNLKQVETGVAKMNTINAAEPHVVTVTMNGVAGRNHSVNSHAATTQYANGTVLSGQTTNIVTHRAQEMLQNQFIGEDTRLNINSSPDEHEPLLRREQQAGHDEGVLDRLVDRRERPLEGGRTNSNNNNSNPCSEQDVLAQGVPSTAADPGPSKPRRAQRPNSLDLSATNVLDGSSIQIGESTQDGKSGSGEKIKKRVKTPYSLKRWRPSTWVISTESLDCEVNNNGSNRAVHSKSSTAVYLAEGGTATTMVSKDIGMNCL
How it was run: as §1

[5] = biological target: T5, ~100 representative kinases (Homo sapiens, UniProt Q14680); conditions: protein MELK; average of three replicates
T5 construct: Recombinant protein kinase domains with a concentration of 2 μM
How it was run: as §1

[6] = biological target: T6, ~100 representative kinases (Homo sapiens, UniProt P48730); conditions: Protein CSNK1D; average of three replicates
T6 construct: Recombinant protein kinase domains with a concentration of 2 μM
How it was run: as §1

[7] = biological target: T7, ~100 representative kinases (Homo sapiens, UniProt O14976); conditions: protein GAK; average of three replicates
T7 construct: Recombinant protein kinase domains with a concentration of 2 μM
T7 sequence (O14976 1-1311): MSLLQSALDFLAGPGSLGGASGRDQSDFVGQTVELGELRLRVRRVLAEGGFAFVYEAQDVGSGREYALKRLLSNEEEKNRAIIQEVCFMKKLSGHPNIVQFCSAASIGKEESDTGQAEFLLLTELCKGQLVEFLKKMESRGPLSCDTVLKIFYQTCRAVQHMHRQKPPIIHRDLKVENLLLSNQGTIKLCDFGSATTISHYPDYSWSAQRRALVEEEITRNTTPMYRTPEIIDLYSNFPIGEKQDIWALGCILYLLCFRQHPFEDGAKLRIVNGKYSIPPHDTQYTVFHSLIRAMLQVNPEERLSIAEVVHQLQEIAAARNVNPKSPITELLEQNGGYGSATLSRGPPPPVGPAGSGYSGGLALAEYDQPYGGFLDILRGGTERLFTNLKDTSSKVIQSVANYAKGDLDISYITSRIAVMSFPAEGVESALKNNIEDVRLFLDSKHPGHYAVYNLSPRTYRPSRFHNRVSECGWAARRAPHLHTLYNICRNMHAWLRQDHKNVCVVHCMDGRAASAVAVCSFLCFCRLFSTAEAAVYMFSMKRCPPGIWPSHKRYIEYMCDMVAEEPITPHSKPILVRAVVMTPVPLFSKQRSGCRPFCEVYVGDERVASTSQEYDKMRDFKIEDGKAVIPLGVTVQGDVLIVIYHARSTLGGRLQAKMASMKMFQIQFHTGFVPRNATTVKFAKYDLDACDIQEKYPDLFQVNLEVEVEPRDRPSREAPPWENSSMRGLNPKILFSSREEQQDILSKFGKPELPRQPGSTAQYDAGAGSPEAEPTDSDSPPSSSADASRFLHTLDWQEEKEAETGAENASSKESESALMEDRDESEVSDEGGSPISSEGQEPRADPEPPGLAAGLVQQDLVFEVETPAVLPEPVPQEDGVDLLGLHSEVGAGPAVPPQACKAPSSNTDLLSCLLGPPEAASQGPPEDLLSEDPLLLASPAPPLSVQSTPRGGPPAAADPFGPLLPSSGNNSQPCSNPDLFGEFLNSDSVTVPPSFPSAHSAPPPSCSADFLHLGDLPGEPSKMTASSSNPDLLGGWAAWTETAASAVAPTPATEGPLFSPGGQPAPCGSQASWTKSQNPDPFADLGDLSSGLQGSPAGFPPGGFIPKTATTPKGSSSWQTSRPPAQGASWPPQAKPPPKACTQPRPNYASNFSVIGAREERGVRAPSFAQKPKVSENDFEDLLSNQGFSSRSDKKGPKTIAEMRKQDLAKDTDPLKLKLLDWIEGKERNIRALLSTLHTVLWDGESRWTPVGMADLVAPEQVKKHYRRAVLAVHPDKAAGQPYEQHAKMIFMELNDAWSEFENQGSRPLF
How it was run: as §1

[8] = biological target: T8, ~100 representative kinases (Homo sapiens, UniProt Q9UPE1); conditions: Protein SRPK3; DSF; average of three replicates
T8 construct: Recombinant protein kinase domains with a concentration of 2 μM
How it was run: as §1

T2 sequence (P45983 whole entry, the tested form may be a part): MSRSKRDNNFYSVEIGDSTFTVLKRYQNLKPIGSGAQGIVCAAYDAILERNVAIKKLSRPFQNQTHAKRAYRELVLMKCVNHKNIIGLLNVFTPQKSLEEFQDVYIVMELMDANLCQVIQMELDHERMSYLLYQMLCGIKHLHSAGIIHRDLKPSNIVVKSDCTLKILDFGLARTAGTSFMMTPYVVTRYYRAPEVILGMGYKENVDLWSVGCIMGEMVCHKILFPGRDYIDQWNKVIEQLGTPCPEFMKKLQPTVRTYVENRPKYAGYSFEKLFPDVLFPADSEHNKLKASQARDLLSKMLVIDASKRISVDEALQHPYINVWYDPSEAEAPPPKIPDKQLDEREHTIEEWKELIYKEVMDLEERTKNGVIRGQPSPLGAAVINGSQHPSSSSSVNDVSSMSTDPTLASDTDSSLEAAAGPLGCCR
T3 sequence (Q8IU85 whole entry, the tested form may be a part): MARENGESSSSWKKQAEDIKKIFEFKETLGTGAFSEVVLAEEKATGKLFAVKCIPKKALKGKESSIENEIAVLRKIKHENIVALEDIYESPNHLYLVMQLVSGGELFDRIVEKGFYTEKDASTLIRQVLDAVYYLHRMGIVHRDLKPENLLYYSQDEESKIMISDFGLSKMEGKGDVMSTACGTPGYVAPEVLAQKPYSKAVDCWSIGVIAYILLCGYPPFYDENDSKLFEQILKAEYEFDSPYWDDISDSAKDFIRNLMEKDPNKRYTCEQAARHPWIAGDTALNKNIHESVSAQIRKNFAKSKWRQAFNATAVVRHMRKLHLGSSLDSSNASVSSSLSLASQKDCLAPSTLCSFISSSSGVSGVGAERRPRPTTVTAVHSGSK
T5 sequence (Q14680 whole entry, the tested form may be a part): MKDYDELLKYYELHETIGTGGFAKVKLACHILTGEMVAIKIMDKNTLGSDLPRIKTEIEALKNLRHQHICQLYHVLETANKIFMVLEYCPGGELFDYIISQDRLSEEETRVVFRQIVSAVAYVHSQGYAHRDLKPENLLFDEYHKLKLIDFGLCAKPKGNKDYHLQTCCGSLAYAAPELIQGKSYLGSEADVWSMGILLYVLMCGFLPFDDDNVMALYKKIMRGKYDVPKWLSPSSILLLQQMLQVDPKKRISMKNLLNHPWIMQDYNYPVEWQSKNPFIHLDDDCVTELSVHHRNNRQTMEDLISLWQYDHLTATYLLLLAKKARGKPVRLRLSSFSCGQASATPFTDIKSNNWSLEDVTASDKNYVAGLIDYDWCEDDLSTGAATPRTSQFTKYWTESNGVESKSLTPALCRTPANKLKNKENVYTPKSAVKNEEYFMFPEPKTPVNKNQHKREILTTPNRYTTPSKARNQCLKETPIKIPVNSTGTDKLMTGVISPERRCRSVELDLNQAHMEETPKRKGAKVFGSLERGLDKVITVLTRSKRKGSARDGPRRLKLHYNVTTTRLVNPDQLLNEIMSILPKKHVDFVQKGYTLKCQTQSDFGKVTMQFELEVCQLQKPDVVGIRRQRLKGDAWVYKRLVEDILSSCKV
T6 sequence (P48730 whole entry, the tested form may be a part): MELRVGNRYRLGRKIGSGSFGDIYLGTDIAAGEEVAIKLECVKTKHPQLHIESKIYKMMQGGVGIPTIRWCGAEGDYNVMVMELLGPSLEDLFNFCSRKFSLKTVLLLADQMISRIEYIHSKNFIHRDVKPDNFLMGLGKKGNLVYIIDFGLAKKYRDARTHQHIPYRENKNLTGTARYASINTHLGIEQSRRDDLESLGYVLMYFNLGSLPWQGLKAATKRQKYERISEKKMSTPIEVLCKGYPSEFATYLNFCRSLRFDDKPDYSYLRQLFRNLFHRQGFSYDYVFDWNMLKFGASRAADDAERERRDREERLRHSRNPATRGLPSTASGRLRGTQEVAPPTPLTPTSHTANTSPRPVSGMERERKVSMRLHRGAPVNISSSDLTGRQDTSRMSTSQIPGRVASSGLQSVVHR
T1 sequence (Q2M2I8 whole entry, the tested form may be a part): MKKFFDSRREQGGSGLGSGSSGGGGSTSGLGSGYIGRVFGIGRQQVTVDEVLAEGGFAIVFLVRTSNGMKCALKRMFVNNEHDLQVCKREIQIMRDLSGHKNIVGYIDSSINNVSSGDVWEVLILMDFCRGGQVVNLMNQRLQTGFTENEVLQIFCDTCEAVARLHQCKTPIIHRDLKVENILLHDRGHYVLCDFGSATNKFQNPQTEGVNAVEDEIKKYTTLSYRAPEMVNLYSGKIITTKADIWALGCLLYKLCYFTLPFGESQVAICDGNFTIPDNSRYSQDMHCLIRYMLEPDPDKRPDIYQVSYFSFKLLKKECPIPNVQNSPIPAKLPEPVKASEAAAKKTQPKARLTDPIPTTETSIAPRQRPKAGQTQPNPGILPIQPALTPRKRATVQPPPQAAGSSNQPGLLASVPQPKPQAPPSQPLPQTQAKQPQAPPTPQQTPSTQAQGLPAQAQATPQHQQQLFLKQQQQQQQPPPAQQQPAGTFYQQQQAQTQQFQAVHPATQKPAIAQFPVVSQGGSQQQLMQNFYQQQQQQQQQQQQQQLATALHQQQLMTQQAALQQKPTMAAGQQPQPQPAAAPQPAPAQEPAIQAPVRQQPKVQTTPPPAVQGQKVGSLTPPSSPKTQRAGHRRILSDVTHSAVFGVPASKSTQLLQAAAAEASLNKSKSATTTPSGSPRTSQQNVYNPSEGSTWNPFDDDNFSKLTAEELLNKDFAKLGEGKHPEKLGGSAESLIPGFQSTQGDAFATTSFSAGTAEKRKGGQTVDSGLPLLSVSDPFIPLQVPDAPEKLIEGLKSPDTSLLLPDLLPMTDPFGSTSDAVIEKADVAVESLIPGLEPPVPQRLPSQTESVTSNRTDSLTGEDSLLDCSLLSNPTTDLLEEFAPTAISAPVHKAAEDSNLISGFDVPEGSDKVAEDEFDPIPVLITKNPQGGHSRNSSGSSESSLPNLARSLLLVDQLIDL
T8 sequence (Q9UPE1 whole entry, the tested form may be a part): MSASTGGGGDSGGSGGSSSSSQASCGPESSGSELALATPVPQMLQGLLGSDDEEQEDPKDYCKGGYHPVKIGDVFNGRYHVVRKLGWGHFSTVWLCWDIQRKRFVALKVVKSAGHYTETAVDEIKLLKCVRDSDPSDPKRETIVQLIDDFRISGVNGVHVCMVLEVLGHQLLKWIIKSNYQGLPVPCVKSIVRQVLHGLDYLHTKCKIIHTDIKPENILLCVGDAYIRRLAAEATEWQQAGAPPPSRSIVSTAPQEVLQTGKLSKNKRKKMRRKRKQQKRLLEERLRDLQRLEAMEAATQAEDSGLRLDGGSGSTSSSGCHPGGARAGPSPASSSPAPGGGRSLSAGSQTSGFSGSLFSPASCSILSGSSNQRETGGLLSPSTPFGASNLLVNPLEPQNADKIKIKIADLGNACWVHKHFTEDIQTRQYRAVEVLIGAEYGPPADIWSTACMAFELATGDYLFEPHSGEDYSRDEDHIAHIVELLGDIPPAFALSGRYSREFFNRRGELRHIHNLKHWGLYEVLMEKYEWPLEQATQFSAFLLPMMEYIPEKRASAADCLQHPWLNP

Structure (SMILES) | dTm [1] | dTm [2] | dTm [3] | dTm [4] | dTm [5] | dTm [6] | dTm [7] | dTm [8]
Cc1cc(NC(=O)C2(C(=O)Nc3cccc(-c4c[nH]c5ncnc(N6CCOCC6)c45)c3)CC2)ccc1F [Compound 20] | 5.13 K | 3.09 K | 0.0569 K | 1.32 K | 17.51 K | 3.49 K | 1.48 K | 10.86 K
CCNc1nc(Nc2cc(F)c(C(=O)N3CCOCC3)cc2OC)ncc1C(F)(F)F [GNE-7915] | 4.61 K | 0.60 K | -0.16 K | 1.37 K | 2.44 K | 1.81 K | 0.77 K | 
CC(C)(C)c1cccc(NC(=O)C2(C(=O)Nc3cccc(-c4c[nH]c5ncnc(N6CCOCC6)c45)c3)CC2)c1 [Compound 22] | -0.91 K | 3.75 K | 3.02 K | 0.10 K | 17.31 K | -2.04 K | -2.23 K | 4.39 K
CN[C@@H]1C[C@H]2O[C@@](C)([C@@H]1OC)n1c3ccccc3c3c4c(c5c6ccccc6n2c5c31)C(=O)NC4 [Staurosporine] | 12.42 K |  |  | 3.02 K | 14.15 K | 2.05 K |  | 4.52 K
O=C(Nc1cccc(-c2c[nH]c3ncnc(N4CCOCC4)c23)c1)C1(C(=O)Nc2ccc(F)cc2F)CC1 [Compound 23] | 2.93 K | 1.59 K | -1.25 K | 0.82 K | 13.56 K | 1.02 K | 0.67 K | 4.09 K
CC(=O)N1CCN(c2nc(Cl)nc3[nH]cc(-c4cccc(NC(=O)Nc5cc(C(C)(C)C)nn5-c5ccc(C)cc5)c4)c23)CC1 [Compound 31] | 0.59 K | 0.84 K | -0.11 K | 0.38 K | 2.26 K | -0.88 K | 3.32 K | 3.85 K
O=C(Nc1cc(F)cc(Br)c1)C1(C(=O)Nc2cccc(-c3c[nH]c4ncnc(N5CCOCC5)c34)c2)CC1 [Compound 27] | -2.65 K | 1.19 K | 1.52 K | 0.25 K | 12.52 K | -0.55 K | -0.90 K | 0.82 K
Cc1ccc(C(=O)Nc2ccc(CN3CCN(C)CC3)c(C(F)(F)F)c2)cc1C#Cc1cnc2[nH]ncc2c1 [GZD-824, reference compound] | 5.77 K | 4.08 K | -0.60 K |  | 5.45 K | 1.29 K | 11.23 K | 
O=C(Nc1ccccc1)C1(C(=O)Nc2cccc(-c3c[nH]c4ncnc(N5CCOCC5)c34)c2)CC1 [Compound 12] | 3.79 K | 1.81 K | -1.41 K | 1.02 K | 12.58 K | 1.61 K | 1.44 K | 4.78 K
CNC(=O)c1cc(Oc2ccc(NC(=O)Nc3cc(C(C)(C)C)nn3-c3ccc4ncccc4c3)c(F)c2)ccn1 [Rebastinib, reference compound] | 0.20 K | 1.99 K | 1.21 K | -0.70 K | 0.63 K | -1.01 K | 4.99 K | 9.62 K
COc1cc2c(Oc3ccc(NC(=O)C4(C(=O)Nc5ccc(F)cc5)CC4)cc3F)ccnc2cc1OCCCN1CCOCC1 [Foretinib, reference compound] | 0.82 K | 2.68 K | 0.45 K | 0.59 K | 7.59 K | 0.91 K | 2.91 K | 7.41 K
Cc1ccc(NC(=O)C2(C(=O)Nc3cccc(-c4c[nH]c5ncnc(N6CCOCC6)c45)c3)CC2)cc1 [Compound 14] | 2.28 K | 0.90 K | -1.76 K | 1.10 K | 11.82 K | 1.58 K | 0.81 K | 5.15 K
O=C(Nc1ccc(Cl)cc1)C1(C(=O)Nc2cccc(-c3c[nH]c4ncnc(N5CCOCC5)c34)c2)CC1 [Compound 13] | 3.55 K | 3.26 K | 0.67 K | 1.26 K | 15.01 K | 2.99 K | 1.60 K | 8.47 K
Cn1cc(-c2c[nH]c3ncnc(N4CCOCC4)c23)cc1C#N [PFE-360] | 8.34 K | 0.89 K | -1.69 K | 2.89 K | 5.72 K | 0.63 K | -0.50 K | 
Cc1ccc(C(=O)Nc2ccc(CN3CCN(C)CC3)c(C(F)(F)F)c2)cc1C#Cc1c[nH]c2ncnc(N3CCOCC3)c12 [Compound 1] | 3.06 K | 2.18 K | 0.56 K | 1.36 K | 8.08 K | 0.0454 K | 3.03 K | 
C[C@@H]1CN(c2cc(-c3n[nH]c4ccc(OC5(C)CC5)cc34)ncn2)C[C@H](C)O1 [MLi2] | 1.29 K | 0.56 K | 2.16 K | 0.0116 K | 0.47 K | 0.66 K | 0.31 K | 
